# Results from patent publication US20250268826A1, “IONIZABLE LIPIDOID COMPOSITIONS AND THERAPEUTIC USES THEREOF” (Flagship Pioneering Innovations VII, LLC, priority 2023, published 2025).
# Columns and labels:
# Assay type in all cases: physicochemical
# [1] = LNP Zeta potential measured using a Zetasizer (Malvern); details: for Zeta potential (mV): LNP with hEPO mRNA, N:P ratio 6; for Zeta potential: hEPO mRNA, N:P 6
# [2] = LNP size and polydispersity index (PDI) by dynamic light scattering (DLS)
# [3] = Encapsulation efficiency (EE %) by fluorescence based Ribogreen assay
# [4] = Table 11, Lipid:DSPC:Cholesterol:DMG-PEG2k 50:10:38.5:1.5 mol % (ALC-0315: 46.3:9.4:42.7:1.6), HEPES/sodium chloride/sucrose buffer, stored at −80C
# [5] = Table 11, LNP with hEPO mRNA, Lipid:DSPC:Cholesterol:DMG-PEG2k 50:10:38.5:1.5 mol % (ALC-0315: 46.3:9.4:42.7:1.6), N:P ratio 6, HEPES/sodium chloride/sucrose buffer, stored at −80C
# [6] = Table 1, LNP lipid:DSPC:Cholesterol:DMG-PEG2k 50:10:38.5:1.5 mol %
# [7] = Table 5, LNP 50:10:38.5:1.5 mol %
# [8] = Table 1, LNP lipid:DSPC:Cholesterol:DMG-PEG2k 50:10:38.5:1.5 mol %, hEPO mRNA, N:P 6
# [9] = Table 3, LNP 50:10:38.5:1.5 mol %, hEPO mRNA, N:P 6
# [10] = Table 5, LNP 50:10:38.5:1.5 mol %, hEPO mRNA, N:P 6
# [11] = Table 5, LNP 60:0:38.5:1.5 mol %, hEPO mRNA, N:P 6
# [12] = Table 5, LNP Lipid:DSPC:Cholesterol:DMG-PEG2k 50:10:38.5:1.5 mol %, hEPO mRNA, N:P 6
# [13] = Table 6, LNP 50:10:38.5:1.5 mol %, hEPO mRNA, N:P 6
# [14] = Table 6, LNP 60:0:38.5:1.5 mol %, hEPO mRNA, N:P 6
# [15] = Table 8, LNP 50:10:38.5:1.5 mol %, hEPO mRNA, N:P 6
# [16] = Table 10, LNP with hEPO mRNA, Lipid:DSPC:Cholesterol:DMG-PEG2k 50:10:38.5:1.5 mol %, N:P ratio 6, DLS
smiles,measurement,setting,value
CCCCCCCCC(CCCCCC)C(=O)OCCN(CCOC(=O)C(CCCCCC)CCCCCCCC)C(=O)C(C)CCN(CCC)CCC.Cl (stereo not drawn) [Compound 987k],Zeta potential (mV),[1]; [4],−3.4 mV
same,PDI,[2]; [5],0.045
same,Size (nm),[2]; [5],76.7 nm
same,Encapsulation Efficiency %,[3]; [5],87.2%
CCCCCCCCC(CCCCCC)C(=O)OCCN(CCOC(=O)C(CCCCCC)CCCCCCCC)C(=O)CN (stereo not drawn) [Compound 105],Zeta potential,[1]; [6],−4.852 mV
same,Zeta potential,[1]; [7],−5.091 mV
same,Zeta potential,"[1]; Table 5, LNP 60:0:38.5:1.5 mol %",−8.315 mV
same,PDI,[2]; [8],0.217
same,Size,[2]; [8],72.6 nm
same,PDI,[2]; [9],0.256
same,Size,"[2]; Table 3, LNP lipid:DSPC:Cholesterol:DMG-PEG2k 50:10:38.5:1.5 mol %, hEPO mRNA, N:P 6",162.2 nm
same,PDI,[2]; [10],0.104
same,PDI,[2]; [11],0.198
same,Size,[2]; [11],146.3 nm
same,Size,[2]; [12],166.9 nm
same,Encapsulation Efficiency %,[3]; [8],91.3%
same,Encapsulation Efficiency %,[3]; [9],99.9%
same,Encapsulation Efficiency %,[3]; [10],99.6%
same,Encapsulation Efficiency %,[3]; [11],99.3%
CCCCCCCCC(CC)C(=O)OCCN(CCOC(=O)C(CC)CCCCCCCC)C(=O)C(N)Cc1ccccc1 (stereo not drawn) [Compound 617],Zeta potential,[1]; [7],−5.824 mV
same,PDI,[2]; [10],0.32
same,Size,[2]; [12],63.7 nm
same,Encapsulation Efficiency %,[3]; [10],99.1%
CCCCCCCCC(CCCCCC)C(=O)OCCN(CCOC(=O)C(CCCCCC)CCCCCCCC)C(=O)C(N)CO (stereo not drawn) [Compound 130],Zeta potential,[1]; [6],−5.059 mV
same,PDI,[2]; [8],0.146
same,Size,[2]; [8],74.2 nm
same,Encapsulation Efficiency %,[3]; [8],95.1%
CCCCCCCCC(CCCCCC)C(=O)OCCN(CCOC(=O)C(CCCCCC)CCCCCCCC)C(=O)CCCN(C)C (stereo not drawn) [Compound 807],Zeta potential,"[1]; Table 6, LNP 50:10:38.5:1.5 mol %",−1.9 mV
same,Zeta potential,"[1]; Table 6, LNP 60:0:38.5:1.5 mol %",−0.6 mV
same,PDI,[2]; [13],0.126
same,PDI,[2]; [14],0.079
same,Size,[2]; [14],114.7 nm
same,Size,"[2]; Table 6, LNP lipid:DSPC:Cholesterol:DMG-PEG2k 50:10:38.5:1.5 mol %, hEPO mRNA, N:P 6",77.7 nm
same,Encapsulation Efficiency %,[3]; [13],98.3%
same,Encapsulation Efficiency %,[3]; [14],99.7%
CCCCCCCCC(CCCCCC)C(=O)OCCN(CCOC(=O)C(CCCCCC)CCCCCCCC)C(=O)C(C)CCN(C)CCO.Cl (stereo not drawn) [Compound 987p],Zeta potential (mV),[1]; [4],−1.5 mV
same,PDI,[2]; [5],0.114
same,Size (nm),[2]; [5],74.2 nm
same,Encapsulation Efficiency %,[3]; [5],99.2%
CCCCCCCCCCCCC(CC)C(=O)OCCN(CCOC(=O)C(CC)CCCCCCCCCCCC)C(=O)CN (stereo not drawn) [Compound 606],Zeta potential,[1]; [7],−2.662 mV
same,PDI,[2]; [10],0.457
same,Size,[2]; [12],57.2 nm
same,Encapsulation Efficiency %,[3]; [10],99.9%
CCCCCCCCC(CCCCCC)C(=O)OCCN(CCOC(=O)C(CCCCCC)CCCCCCCC)C(=O)C(C)CNCCC.Cl (stereo not drawn) [Compound 928],Zeta potential,"[1]; Table 8, LNP 50:10:38.5:1.5 mol %",−11.9 mV
same,PDI,[2]; [15],0.177
same,Size,"[2]; Table 8, LNP Lipid:DSPC:Cholesterol:DMG-PEG2k 50:10:38.5:1.5 mol %, hEPO mRNA, N:P 6",75.5 nm
same,Encapsulation Efficiency %,[3]; [15],91.8%
CCCCCCCCC(CCCCCC)C(=O)OCCN(CCOC(=O)CCCCCCC(C)C)C(=O)CCN(CC)CC (stereo not drawn) [Compound 917d],Zeta potential (mV),"[1]; Table 10, Lipid:DSPC:Cholesterol:DMG-PEG2k 50:10:38.5:1.5 mol %",−3.3 mV
same,PDI,[2]; [16],0.096
same,Size (nm),[2]; [16],122 nm
same,Encapsulation Efficiency %,"[3]; Table 10, LNP with hEPO mRNA, Lipid:DSPC:Cholesterol:DMG-PEG2k 50:10:38.5:1.5 mol %, N:P ratio 6, Ribogreen assay",60.3%
